According to ChEMBL document CHEMBL4616712, “Design and Synthesis of 1,2-Deoxy-pyranose Derivatives of Spliceostatin A toward Prostate Cancer Treatment” (ACS Med Chem Lett, 2020):

Legend:
CWR22R = experiment: Suppression of AR-V7 expression in human CWR22Rv1 cells expressing GFP measured after 3 days by FACS assay; format: functional, cell-based; settings: 22Rv1, 72 h
[1] = Toxicity in BALB/c mouse assessed as mouse death at 280 nM/body, iv measured after 24 hrs; format: organism-based; settings: in vivo, 0.28 µM
LNCaP = experiment: Suppression of AR-V7 expression in human LNCAP cells expressing GFP; format: functional, cell-based
[2] = Toxicity in BALB/c mouse assessed as effect on weight loss at 280 nM/body, iv administered on day 2 and day 4; format: organism-based; settings: in vivo, 0.28 µM
[3] = Toxicity in BALB/c mouse assessed as mouse death at 280 nM/body, iv administered on day 2 and day 4; format: organism-based; settings: in vivo, 0.28 µM

Row | SMILES | IC50 (CWR22R) [nM] | other results
1 | CO[C@]1(C)C[C@@]2(CO2)[C@H](O)[C@@H](/C=C/C(C)=C/C[C@@H]2O[C@H](C)[C@H](NC(=O)/C=C\[C@H](C)OC(C)=O)C[C@@H]2C)O1 | 0.6 | Activity [1]: Toxic
2 | CC(=O)O[C@@H](C)/C=C\C(=O)N[C@@H]1C[C@H](C)[C@H](C/C=C(C)/C=C/[C@H]2OCC[C@]3(O[C@H]3C)[C@@H]2O)O[C@@H]1C | 187 | –
3 | CC(=O)O[C@@H](C)/C=C\C(=O)N[C@@H]1C[C@H](C)[C@H](C/C=C(C)/C=C/[C@H]2O[C@H](c3ccccc3)C[C@@]3(CO3)[C@@H]2O)O[C@@H]1C | – | IC50 (LNCaP): 132 nM
4 | CC(=O)O[C@@H](C)/C=C\C(=O)N[C@@H]1C[C@H](C)[C@H](C/C=C(C)/C=C/[C@H]2OCC[C@]3(O[C@@H]3C)[C@@H]2O)O[C@@H]1C | 202 | –
5 | CC(=O)O[C@@H](C)/C=C\C(=O)N[C@@H]1C[C@H](C)[C@H](C/C=C(C)/C=C/[C@H]2OCC[C@@]3(CO3)[C@@H]2O)O[C@@H]1C | 3.3 | Activity [2]: Non-Toxic; Activity [3]: Non-Toxic
